In patent US9067898B1, “Isothiazole derivatives as GPR120 agonists for the treatment of type II diabetes” (Janssen Pharmaceutica NV, priority 2014, dated 2015):

What was measured:
Assay type in all cases: cell-based
[1] = target: T1, Human GPR120 short form (Homo sapiens, UniProt Q5NUL3); assay: Human GPR120 calcium flux assay (FLIPR), Procedure Calcium B; conditions: HEK-293 cells expressing human GPR120 short form, 4200 cells/well; read-out: GPR120 Ca2+ Assay B EC50
T1 construct: expressed in transfected cells
T1 sequence (Q5NUL3 1-361): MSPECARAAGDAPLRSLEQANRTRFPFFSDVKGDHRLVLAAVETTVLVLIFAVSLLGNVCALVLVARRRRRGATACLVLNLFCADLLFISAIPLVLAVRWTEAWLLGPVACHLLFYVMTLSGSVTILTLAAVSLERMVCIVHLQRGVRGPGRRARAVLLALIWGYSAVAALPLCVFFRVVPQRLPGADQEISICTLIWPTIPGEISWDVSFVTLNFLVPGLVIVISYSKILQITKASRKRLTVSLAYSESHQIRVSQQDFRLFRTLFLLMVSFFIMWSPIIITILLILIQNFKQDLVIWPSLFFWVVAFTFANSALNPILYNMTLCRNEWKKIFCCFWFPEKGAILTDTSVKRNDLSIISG
Excerpt: This in vitro assay serves to assess test compound agonist activity against the short splice variant (SVS with Accession number NM_001195755.1 confirmed by sequencing data) of the GPR120 receptor. The Human Short splice variant #2 (NM_001195755.1) is missing an in-frame coding exon compared to variant 1 (the Human Long splice variant NM_181745.3), resulting in a shorter isoform (GPR120-S) lacking a 16 aa protein segment compared to isoform GPR120-L. The assay platform utilizes HEK-293 cells stably transfected to express the Human GPR120 short form. These cells are first loaded with the Ca^+2 sensitive dye, Fluo-4 NW. Upon stimulation, intracellular released Ca^+2 can bind to the dye and alter its fluorescence intensity. This increase in fluorescence signal, and thus the flux in intracellular [Ca^2+], is detected and quantitated by fluorescence imaging using a FLIPR reader. The effect of the agonist is measured as a function of concentration and used to calculate an EC50 based upon a response curve.
In this procedure 4200 cells/well were employed.
A Human GPR120 clone (Genbank accession number NM_001195755.1) was placed into the pcDNA3.1 mammalian expression vector carrying the neomycin resistance gene. A stable mammalian cell was generated by placing the above clone into a HEK293 background. Clonal cells responding to long chain fatty acids had expression levels of GPR120 confirmed by RT-qPCR. Human HEK-GPR120 cells were cultured in Dulbecco's Modified Eagle's Medium (DMEM)/F12 medium supplemented with 10% fetal bovine serum (FBS), 1% L-Glutamine and 1% penicillin/streptomycin and 0.5 mg/ml G-418. Cells were split 2 times a week to keep the cells in the log-phase growth.
In preparation for the assay, HEK cells stably transfected with Human GPR120 (2.5K cells per well in 25 uL growth medium) were seeded into 384-well plates and then incubated overnight (37° C., 5% CO2). The next day, the media was changed to 20 μL assay buffer and the cell starved for 1 h at 37° C. The dye loading solution (2× dye) was prepared using 10 mL assay buffer, 100 μL of 250 mM probenecid, 1 bottle of Component A, and 20 μl of dye in DMSO. Twenty μL of the 2× dye loading buffer was then added to each well. The plates were incubated at 37° C. for 30 min, then at room temperature for an additional 15 minutes, before performing the assay on FLIPR. Test compounds were prepared in assay buffer (2 uL of cpd+198 uL assay buffer, final DMSO in assay plate is 0.2%) at the desired concentration, more particularly at 100, 50, 25, 12.5, 6.25, 3.125, 1.562, 0.781, 0.391, 0.195, 0.098, 0.049, 0.024 and 0.012 μM.
The assay was performed on a FLIPR plate reader using the following parameters. Baseline was read for 10 seconds at 1 sec intervals. The program was set to transfer 10 μL of ligand from compound plate to cell plate after baseline reading. Aspiration was executed at: 10 μL/sec speed, 4.6 μL height; Dispensing was executed at: 30 μL/sec speed, 45 μL height. After compound addition, each well was read for 300 sec, with measurements collected at 1 sec intervals.
The kinetic data from the FLIPR was based upon a 5 minute window for data collection. The fluorescence of each sample well was used for individual calculations of a normalized RFU value, which was defined as maximum response minus the minimum response. The normalized fluorescence reading (RFU) was calculated as follows: RFU=Fmax−Fmin The data were fitted to a sigmoidal dose-response curve with a variable Hill slope (<2) using nonlinear regression with GraphPad Prism 5.0 to calculate the EC50 values. The Fitting Equation was: Y=Bottom+(Top−Bottom)/(1+10^((Log EC50−X)*HillSlope)), where X is the log of the concentration and Y is the response.

[2] = target: T2, short form of the GPR120 receptor (GPR120S) (Homo sapiens, UniProt Q5NUL3); assay: Human GPR120 DiscoveRx PathHunter Beta-Arrestin assay, Procedure β-arrestin B; conditions: PathHunter CHO-K1 GPR120S β-Arrestin cell line, 5000 cells/well, read-out: hGPR120 β-arrestin B EC50
T2 construct: host or cells: PathHunter CHO-K1 GPR120S β-Arrestin Cell Line
How it was run: (§1)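 PathHunter CHO-K1 β-arrestin cells expressed long-form GPR120 (Procedure A, 3000 cells/well) or short-form GPR120 (Procedure B, 5000 cells/well). Compounds were serially diluted from 25 µM and incubated 90 min at 37 °C in HBSS/20 mM HEPES/0.1% BSA, pH 7.4. Luminescence was read after 60 min detection at RT; EC50 comes from % activity versus positive control, Hill slope fixed at 1.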

[3] = target: T3, long form of human GPR120 (Homo sapiens, UniProt Q5NUL3); assay: Human GPR120 DiscoveRx PathHunter Beta-Arrestin assay, Procedure β-arrestin A; conditions: PathHunter CHO-K1 GPR120 β-Arrestin cell line, 3000 cells per well, read-out: hGPR120 β-arrestin A EC50
T3 construct: host or cells: PathHunter CHO-K1 GPR120 β-Arrestin Cell Line
How it was run: as §1

T2 sequence (P32121 whole entry partner, one chain of several): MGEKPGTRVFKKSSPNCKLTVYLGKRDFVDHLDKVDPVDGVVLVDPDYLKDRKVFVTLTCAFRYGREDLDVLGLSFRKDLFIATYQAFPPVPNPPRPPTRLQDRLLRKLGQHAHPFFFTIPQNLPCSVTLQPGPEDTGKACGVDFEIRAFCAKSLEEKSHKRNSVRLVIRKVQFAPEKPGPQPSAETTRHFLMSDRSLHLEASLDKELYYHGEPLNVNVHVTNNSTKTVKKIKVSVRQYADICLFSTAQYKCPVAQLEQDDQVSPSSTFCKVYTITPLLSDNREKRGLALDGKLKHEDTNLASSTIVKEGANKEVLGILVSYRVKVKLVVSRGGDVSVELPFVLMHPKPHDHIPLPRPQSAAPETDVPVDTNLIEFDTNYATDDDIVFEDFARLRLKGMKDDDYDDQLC
T3 sequence (Q5NUL3 1-377 isoform Q5NUL3-1): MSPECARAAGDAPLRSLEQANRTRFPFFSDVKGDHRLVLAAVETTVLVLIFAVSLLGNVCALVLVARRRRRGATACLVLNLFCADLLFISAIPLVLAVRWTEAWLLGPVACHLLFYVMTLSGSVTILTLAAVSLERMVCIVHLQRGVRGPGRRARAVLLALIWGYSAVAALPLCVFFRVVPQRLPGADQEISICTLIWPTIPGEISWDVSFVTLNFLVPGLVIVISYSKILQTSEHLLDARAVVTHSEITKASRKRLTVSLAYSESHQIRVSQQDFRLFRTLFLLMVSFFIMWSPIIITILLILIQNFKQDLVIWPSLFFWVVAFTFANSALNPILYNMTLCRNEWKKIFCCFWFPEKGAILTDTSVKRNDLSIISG
T3 sequence (P32121 whole entry partner): as the sequence (P32121 whole entry partner, one chain of several) above

EC50 [1] [nM] | EC50 [2] [nM] | EC50 [3] [nM] | SMILES
210 | – | – | COc1cc(OCc2c(Cl)nsc2-c2ccc(C)cc2F)ccc1CCC(=O)O [Cpd 258, 3-(4-{[3-Chloro-5-(2-fluoro-4-methylphenyl)isothiazol-4-yl]methoxy}-2-methoxyphenyl)propanoic acid]
3430 | – | – | COc1ccccc1-c1snc(Cl)c1COc1ccc(CCC(=O)O)c(C(F)(F)F)c1 [Cpd 260, 3-[4-{[3-Chloro-5-(2-methoxyphenyl)isothiazol-4-yl]methoxy}-2-(trifluoromethyl)phenyl]propanoic acid]
755 | – | – | Cc1ccc(-c2snc(Cl)c2COc2ccc(CCC(=O)O)c(C(C)F)c2)cc1 (stereo not drawn) [Cpd 279, 3-[4-{[3-Chloro-5-(4-methylphenyl)isothiazol-4-yl]methoxy}-2-(1-fluoroethyl)phenyl]propanoic acid]
379 | 667 | – | Cc1c(CCC(=O)O)ccc(OCc2c(-c3ccc(C#N)cc3)nsc2C(F)(F)F)c1C [Cpd 264, 3-(4-{[3-(4-Cyanophenyl)-5-(trifluoromethyl)isothiazol-4-yl]methoxy}-2,3-dimethylphenyl)propanoic acid]
986 | – | – | Cc1ccc(-c2snc(Cl)c2COc2ccc(CCC(=O)O)c(C(F)(F)F)c2)c(C)c1 [Cpd 256, 3-[4-{[3-Chloro-5-(2,4-dimethylphenyl)isothiazol-4-yl]methoxy}-2-(trifluoromethyl)phenyl]propanoic acid]
923 | – | – | CCc1ccc(-c2nsc(C(C)C)c2COc2ccc(CCC(=O)O)c(C)c2C)cc1 [Cpd 64, 3-(4-[[3-(4-ethylphenyl)-5-(propan-2-yl)-1,2-thiazol-4-yl]methoxy]-2,3-dimethylphenyl)propanoic acid]
261 | – | – | O=C(O)CCc1ccc(OCc2c(Cl)nsc2-c2ccccc2Cl)cc1C(F)(F)F [Cpd 259, 3-[4-{[3-Chloro-5-(2-chlorophenyl)isothiazol-4-yl]methoxy}-2-(trifluoromethyl)phenyl]propanoic acid]
242 | 325 | – | COc1ccc(-c2nsc(C(F)(F)F)c2COc2c(F)cc(CCC(=O)O)cc2F)nc1 [Cpd 271, 3-(3,5-Difluoro-4-{[3-(5-methoxypyridin-2-yl)-5-(trifluoromethyl)isothiazol-4-yl]methoxy}phenyl)propanoic acid]
550 | – | – | Cc1ccc(-c2snc(Cl)c2COc2ccc(CCC(=O)O)cc2)c(C)c1 [Cpd 255, 3-(4-{[3-Chloro-5-(2,4-dimethylphenyl)isothiazol-4-yl]methoxy}phenyl)propanoic acid]
45 | – | 191 | Cc1ccc(-c2snc(Cl)c2COc2c(F)cc(CCC(=O)O)cc2F)c(F)c1 [Cpd 252, 3-(4-{[3-Chloro-5-(2-fluoro-4-methylphenyl)isothiazol-4-yl]methoxy}-3,5-difluorophenyl)propanoic acid]
289 | 982 | – | CC(Cc1ccc(OCc2c(-c3ncc(Cl)cc3F)nsc2C(F)(F)F)c(F)c1)C(=O)O (stereo not drawn) [Cpd 266, 3-(4-{[3-(5-Chloro-3-fluoropyridin-2-yl)-5-(trifluoromethyl)isothiazol-4-yl]methoxy}-3-fluorophenyl)-2-methylpropanoic acid]
473 | 445 | – | COc1ncc(-c2nsc(C(F)(F)F)c2COc2ccc(CCC(=O)O)c(C)c2C)s1 [Cpd 268, 3-(4-{[3-(2-Methoxy-1,3-thiazol-5-yl)-5-(trifluoromethyl)isothiazol-4-yl]methoxy}-2,3-dimethylphenyl)propanoic acid]
672 | 332 | – | N#Cc1ccc(-c2nsc(C(F)(F)F)c2COc2c(F)cc(CCC(=O)O)cc2F)cc1 [Cpd 261, 3-(4-{[3-(4-Cyanophenyl)-5-(trifluoromethyl)isothiazol-4-yl]methoxy}-3,5-difluorophenyl)propanoic acid]
108 | 246 | – | O=C(O)CCc1cc(F)c(OCc2c(-c3ccc(Cl)cn3)nsc2C(F)(F)F)c(F)c1 [Cpd 270, 3-(4-{[3-(5-Chloropyridin-2-yl)-5-(trifluoromethyl)isothiazol-4-yl]methoxy}-3,5-difluorophenyl)propanoic acid]
427 | 721 | – | CCc1ccc(-c2nsc(C(F)(F)F)c2COc2c(F)cc(CCC(=O)O)cc2F)nc1 [Cpd 273, 3-(4-{[3-(5-Ethylpyridin-2-yl)-5-(trifluoromethyl)isothiazol-4-yl]methoxy}-3,5-difluorophenyl)propanoic acid]
401 | – | – | Cc1ccccc1-c1snc(Cl)c1COc1ccc(CCC(=O)O)cc1 [Cpd 254, 3-(4-{[3-Chloro-5-(2-methylphenyl)isothiazol-4-yl]methoxy}phenyl)propanoic acid]
349 | – | – | Cc1ccccc1-c1snc(Cl)c1COc1ccc(CCC(=O)O)c(C(F)(F)F)c1 [Cpd 253, 3-[4-{[3-Chloro-5-(2-methylphenyl)isothiazol-4-yl]methoxy}-2-(trifluoromethyl)phenyl]propanoic acid]
601 | – | – | Cc1ccc(-c2snc(Cl)c2COc2ccc(CCC(=O)O)c(C(C)(F)F)c2)cc1 [Cpd 278, 3-[4-{[3-Chloro-5-(4-methylphenyl)isothiazol-4-yl]methoxy}-2-(1,1-difluoroethyl)phenyl]propanoic acid]
1060 | – | – | Cc1cc(OCc2c(Cl)nsc2-c2ccccc2C)ccc1CCC(=O)O [Cpd 257, 3-(4-{[3-Chloro-5-(2-methylphenyl)isothiazol-4-yl]methoxy}-2-methylphenyl)propanoic acid]
1110 | – | – | Cc1cc(OCc2c(-c3ccc(Cl)cc3)nsc2C(F)(F)F)ccc1CCC(=O)O [Cpd 275, 3-(4-{[3-(4-Chlorophenyl)-5-(trifluoromethyl)isothiazol-4-yl]methoxy}-2-methylphenyl)propanoic acid]
3980 | – | – | O=C(O)CCc1ccc(OCc2c(-c3ccc(Cl)cc3)nsc2C(F)(F)F)cc1C(F)F [Cpd 274, 3-[4-{[3-(4-Chlorophenyl)-5-(trifluoromethyl)isothiazol-4-yl]methoxy}-2-(difluoromethyl)phenyl]propanoic acid]
886 | – | – | CC1CC=C(c2snc(Cl)c2COc2ccc(CCC(=O)O)c(C(F)(F)F)c2)CC1 (stereo not drawn) [Cpd 276, 3-[4-{[3-Chloro-5-(4-methylcyclohex-1-en-1-yl)isothiazol-4-yl]methoxy}-2-(trifluoromethyl)phenyl]propanoic acid]
